Data reported in patent US7524503B2, “Human cytomegalovirus (HCMV) cytotoxic T cell epitopes, polyepitopes compositions comprising same and diagnostic and prophylactic and therapeutic uses therefor” (priority 2001, dated 2009).

Legend:
Assay type in all cases: cell-based, human
CD4+ T cells = assay: CD4+/CD8+ analysis of 20-mer peptides (intracellular IFN-γ staining or depletion ELISPOT)
Protocol: (§1) To determine whether a particular 20-mer peptide contained either a CD4^+- or CD8^+-restricted epitope, or both, CD4^+/CD8^+ cell depletion ELISPOT assays were performed on PBMC from healthy virus carriers. For any one experiment, three populations of cells were used: a) CD8^+-depleted PBMC, b) CD4^+-depleted PBMC, and c) non-depleted PBMC. These populations of cells were tested concurrently with the same peptides in a conventional ELISPOT assay as described herein above. DYNABEADS M-450 (Dynal, Oslo, Norway) that bound specifically to CD4^+- or CD8^+ cells were used to perform the depletion essentially according to manufacturers instructions. Beads were washed twice in cold PBS supplemented with 2% FCS using magnetic isolation. The requisite number of cells was resuspended in cold PBS supplemented with 2% FCS, added to the beads and then incubated at 4° C., in the dark, for 30 mins (CD8^+ beads) or 60 mins (CD4^+ beads). Populations were depleted of CD4^+ or CD8^+ cells using magnetic separation. After depletion, the non-attached cells were removed and washed once in growth medium, counted and used in conventional ELISPOT assay. Depleted cells were used at 1.7×10^5 cells per well and the non-depleted population was used at the standard 2.5×10^5 cells per well. After the depletion step, each respective cell population was assessed for the purity of CD4^+ and CD8^+ T cells by three-colour flow cytometry. Samples of depleted cell populations were stained with anti-CD3 antibody directly conjugated to fluorescein isothiocyanate (FITC), anti-CD4 antibody conjugated with phycoerythrin (PE) fluorochrome, and anti-CD8 antibody conjugated with Tricolor fluorochrome (described below). The percent of CD3^+/CD4^+ cells present within the CD8^+-depleted population and the percent of CD3^+/CD8^+ cells present within the CD4^+-depleted populations were assessed on FACSCalibur cytometer (Becton Dickinson). The purity of each population was greater than 90% and the results from the ELISPOT assays are expressed as the percentage of CD4+ or CD8^+ cells within the depleted populations that responded toward each peptide by producing IFN-γ.
(§2) PBMCs were incubated at 37° C. in RPMI+10% FCS with and without 10 μg/ml peptides for 6 hours. Golgiplug™ (Pharmingen, San Diego, Calif., USA) was added to the samples according to manufacturer's instructions during the second hour of incubation and cells activated with 25 ng/ml phorbol 12-myristidate 13-acetate (PMA; Sigma-Aldrich Co, St. Louis Mo.) and 1 μg/ml iomomycin (Sigma) acted as a positive control. Following the incubation, 1×10^6 cells/sample were washed and resuspended in staining buffer consisting of PBS with GolgiPlug™, 3% FCS and sodium azide. Cells were then stained with FITC conjugated anti-CD3-FITC (UCHT1, Immunotech, Marseille, France), and either Tricolor (TRI) conjugated anti-CD4 (S3.5, Caltag, Burlingame, Calif.) or anti-CD8 (3B5, Caltag) for 30 minutes, 4° C. in the dark. The cells were fixed for 20 min at 4° C. with Cytofix/Cytoperm™ (BD Biosciences) and resuspended in Perm/Wash™ permeabilization buffer (BD Biosciences) according to manufacturers protocol. Fixed cells were stained with phycoerythrin (PE) conjugated anti-human IFN-γ (B27, Pharmingen) for 30 min at 4° C. in the dark. As a negative control, cells were stained with appropriate isotype matched control antibodies. Cells were washed twice in permeabilization buffer and resuspended in staining buffer before analysis by three-colour flow cytometry on a FACSCalibur cytometer (BD Biosciences). All data analysis was carried out using FlowJo software (Tree Star, Inc. San Carlos, CA).
(§3) When using 20-mer peptides to map epitopes by ELISPOT, it is possible that some responses may be MHC class-II restricted, and not necessarily restricted through HLA class I alleles. It was evident throughout this study that some epitopes identified using ELISPOT could not be confirmed using cytotoxicity analysis. […]

CD8+ T cells = assay: as above
Protocol: as §1, §2, §3

[1] = tested on: PBMC from healthy HCMV seropositive donors; assay: IFN-γ ELISPOT assay; conditions: peptide 10 μg/ml
Protocol: ELISPOT assay was used to assess whether stimulation of PBMC from a large panel of seropositive donors with HCMV peptides could induce IFN-γ expression in T cells. Briefly, a 96-well nitrocellulose plate (Multiscreen, Millipore) was coated overnight at 4° C. with mouse monoclonal antibody anti-IFN-γ IgG1 (10 μg/ml; Mabtech Nacka, Sweden). The plate was then washed six times in Phosphate Buffered Saline (PBS) and blocked for 1 hour at 37° C. with PBS supplemented with 5% FCS. The blocking solution was removed and PBMC from healthy HCMV seropositive donors were added at a concentration of 2.5×10^5 cells per well in growth medium. These cells were incubated for 18 h at 37° C. in a 5% CO2 atmosphere in the presence of synthetic peptides from HCMV antigens (10 μg/ml). After incubation, the plate was washed three times with PBS supplemented with 0.05% Tween, followed by three washes with PBS alone. Biotinylated anti-IFN-γ (Mabtech, Nacka Sweden) detection antibody was added to each well at a final concentration of 1 μg/ml in PBS. The plates were incubated at room temperature in the dark for 4 h and then washed, as described above. Streptavidin-Alkaline phosphatase (Sigma) was added to each well at a final concentration of 1 μg/ml in PBS and incubated at room temperature in the dark for 2 h. After a final wash with PBS, the substrate, 5-bromo-4-chloro-3-indolyl phosphate and nitro blue tetrazolium, was added to each well and the plates incubated for 30 min at RT. Cells that produced IFN-γ in response to the presence of peptide were detected as purple spots on the nitrocellulose membrane of each well. The spots were counted automatically using a closed-circuit camera (CCD) and ImagePro image analysis software or automated ELISPOT reader (AID, Germany). The T cell precursor frequency for each peptide was based on the total number of PBMC in the well and the number of peptide-specific spots per well, over an average of 3 wells. The number of peptide-specific spots was also calculated by subtracting the negative control values, which consisted of PBMC without peptide (an average of 3 wells), from the test wells.
To determine whether memory CTL responses against the predictive HCMV potential epitopes could be detected in healthy seropositive virus carriers, we used the ELISPOT assay, which allows rapid identification of CTL epitopes without prolonged in vitro culture.
We tested epitopes that were restricted for HLA A1, A3, A24, A26, B7, B8, B27, B35 and B44 in ELISPOT assays, to determine whether memory T cell responses could be detected in healthy HLA-matched virus carriers. PBMC from a cohort of healthy virus carriers (Table 2) were stimulated with individual peptides and the cells that produced IFN-γ were detected. CTL epitopes that were restricted through either HLA A1, A3, A24, A26, B7, B8 or B27, were identified.
Thus, a total of 450 peptides were produced. ELISPOT assays were used to determine whether ex vivo memory T cell responses could be detected in a cohort of 14 healthy virus carriers (Table 2). PBMC were stimulated with individual peptides and the cells that produced IFN-γ were detected.

[2] = tested on: peptide-sensitized autologous PHA blasts or LCLs; set-up: key to CTL response: Y: Yes; ND: Not detected; conditions: overlapping 20mer peptides, Table 4

| Sequence | ELISPOT Responses (SFC/10^6 PBMC) ([1]; donor delta) | ELISPOT Responses (SFC/10^6 PBMC) ([1]; donor seven) | Responding cells (% CD4) (CD4+ T cells; donor sixteen) | Responding cells (% CD8) (CD8+ T cells; donor sixteen) | ELISPOT Responses (SFC/10^6 PBMC) ([1]; donor sixteen) | other results |
| --- | --- | --- | --- | --- | --- | --- |
| QPFMRPHERNGFTVLCPKNM | SE(783) SFC/10^6 PBMC | – | – | – | – | Responding cells (% CD4) (CD4+ T cells; donor two): 0.05%; Responding cells (% CD8) (CD8+ T cells; donor two): 0% |
| VLCCYVLEETSVMLAKRPLI (human cytomegalovirus IE1 CTL epitope peptide) | – | SB(2171) SFC/10^6 PBMC | – | – | – | CTL response [2]: Y |
| HQVLDEAIKACKTMQVNNKG | – | – | 0% | 0.18% | TC(234) SFC/10^6 PBMC | – |
| VKSEVDAVRCRLGTMCNLAL | 253 SFC/10^6 PBMC | 320 SFC/10^6 PBMC | – | – | – | Responding cells (% CD4) (CD4+ T cells; donor delta): 0%; Responding cells (% CD8) (CD8+ T cells; donor delta): 0.06% |
| SEPVSEIEEVAPEEEEDGAE (human cytomegalovirus IE1 CTL epitope peptide) | SE(200) SFC/10^6 PBMC | – | – | – | – | Responding cells (% CD4) (CD4+ T cells; donor delta): 0%; Responding cells (% CD8) (CD8+ T cells; donor delta): 0.097% |
| DQYVKVYLESFCEDVPSGKL | SE(265) SFC/10^6 PBMC | – | – | – | – | Responding cells (% CD4) (CD4+ T cells; donor delta): 0%; Responding cells (% CD8) (CD8+ T cells; donor delta): 0.23% |
| AHELVCSMENTRATKMQVIG | – | 231 SFC/10^6 PBMC | – | – | – | Responding cells (% CD4) (CD4+ T cells; donor seven): 0.04%; Responding cells (% CD8) (CD8+ T cells; donor seven): 0.01%; ELISPOT Responses (SFC/10^6 PBMC) ([1]; donor alpha): 169 SFC/10^6 PBMC |
| SSSSSSCSSASDSESESEEM (human cytomegalovirus IE2 CTL epitope peptide) | – | – | 0% | 0.05% | 93 SFC/10^6 PBMC | Responding cells (% CD4) (CD4+ T cells; donor eight): 0%; Responding cells (% CD8) (CD8+ T cells; donor eight): 0.01%; ELISPOT Responses (SFC/10^6 PBMC) ([1]; donor eight): 125 SFC/10^6 PBMC |
| TRATKMQVIGDQYVKVYLES | – | 346 SFC/10^6 PBMC | – | – | – | Responding cells (% CD4) (CD4+ T cells; donor seven): 0.09%; Responding cells (% CD8) (CD8+ T cells; donor seven): 0.01%; ELISPOT Responses (SFC/10^6 PBMC) ([1]; donor alpha): 139 SFC/10^6 PBMC |
| KAAWSLKELHTHQLCPRSSD (human cytomegalovirus IE2 CTL epitope peptide) | – | – | 0% | 0.08% | TC(162) SFC/10^6 PBMC | – |
| CLPLMQKFPKQVMVRIFSTN (human cytomegalovirus IE2 CTL epitope peptide) | – | – | 0% | 0.15% | TC(256) SFC/10^6 PBMC | – |
